Laboratory results published in patent US8993542B2, “Methods of treating viral infections” (priority 2008, dated 2015).

Tests used:
[1] = tested on: HIV; assay: microbe, parasite or virus in culture; assay type: cell-based
[2] = tested on: HIV-1IIIB; assay: Two-drug combination antiviral assay in CEM cells (CPE), MacSynergy II; assay type: cell-based
[3] = in combination with CMX157, CEM-SS cells, 95% confidence

Nc1nc(=O)n(C2CSC(CO)O2)cc1F (stereo not drawn) [FTC, 2-hydroxymethyl-5-(5-fluorocytosin-1-yl)-1,3-oxathiolane]
IC50 ([1]; Human immunodeficiency virus 1, PANEL 1, WT): 0.89 µM
IC50 ([1]; Human immunodeficiency virus 1, PANEL 2, WT): 1.57 µM
IC50 ([1]; Human immunodeficiency virus 1, PANEL 3, 6 TAMs, no 184): 5.73 µM
IC50 ([1]; Human immunodeficiency virus 1, PANEL 6, 6 TAMs + 184): > 100 µM
IC50 ([1]; Human immunodeficiency virus 1, PANEL 7, 184V): > 100 µM
IC50 ([1]; Human immunodeficiency virus 1, PANEL 9, 69ins, no 184): 29.6 µM
IC50 ([1]; Human immunodeficiency virus 1, PANEL 12, 69ins + 184): > 100 µM
IC50 ([1]; Human immunodeficiency virus 1, PANEL 14, 65R, no 184): 19.3 µM
IC50 ([1]; Human immunodeficiency virus 1, PANEL 15, 65R + 184V): > 100 µM
IC50 ([1]; Human immunodeficiency virus 1, PANEL 17, L74V): 2.14 µM
IC50 ([1]; Human immunodeficiency virus 1, PANEL 19, L74V + M184V): > 100 µM
IC50 ([1]; Human immunodeficiency virus 1, PANEL 26, 151M, no 184): 34.7 µM
IC50 ([1]; Human immunodeficiency virus 1, PANEL 28, 151M + 184): > 100 µM
IC50 ([1]; Human immunodeficiency virus 1, PANEL 29, L74V − SDM): 1.68 µM
IC50 ([1]; Human immunodeficiency virus 1, PANEL 30, M184V − SDM): > 100 µM
IC50 ([1]; Human immunodeficiency virus 1, PANEL 31, K65R − SDM): 12.9 µM
IC50 ([1]; Human immunodeficiency virus 1, PANEL 33, T215Y): 2.64 µM
IC50 ([1]; Human immunodeficiency virus 1, PANEL 34, T215Y + M184V): > 100 µM
IC50 ([1]; Human immunodeficiency virus 1, PANEL 35, M41L + T215Y): 3.13 µM
IC50 ([1]; Human immunodeficiency virus 1, PANEL 37, M41L + T215Y + M184V): > 100 µM
IC50 ([1]; Human immunodeficiency virus 1, PANEL 38, M41L + L210W + T215Y): 4.22 µM
IC50 ([1]; Human immunodeficiency virus 1, PANEL 39, M41L + L210W + T215Y): 2.16 µM
IC50 ([1]; Human immunodeficiency virus 1, PANEL 40, M41L + L210W + T215Y + M184V): > 100 µM
IC50 ([1]; Human immunodeficiency virus 1, PANEL 41, M41L + L210W + T215Y + M184V): > 100 µM
IC50 ([1]; Human immunodeficiency virus 1, PANEL 42, D67N + K70R): 3.28 µM
IC50 ([1]; Human immunodeficiency virus 1, PANEL 44, D67N + K70R + T215F + K219E + M184V): > 100 µM
IC50 ([1]; Human immunodeficiency virus 1, PANEL 45, L210W + T215Y): 2.62 µM
IC50 ([1]; Human immunodeficiency virus 1, PANEL 46, D67N + K70E): 3.39 µM
IC50 ([1]; Human immunodeficiency virus 1, PANEL 47, D67N + K70E + M184V): > 100 µM
IC50 ([1]; Human immunodeficiency virus 1, PANEL 48, K70E + M184V): > 100 µM
IC50 Fold Change ([1]; PANEL 1, WT): 0.78
IC50 Fold Change ([1]; PANEL 2, WT): 1.38
IC50 Fold Change ([1]; PANEL 3, 6 TAMs, no 184): 5.02
IC50 Fold Change ([1]; PANEL 6, 6 TAMs + 184): >87.6048
IC50 Fold Change ([1]; PANEL 7, 184V): >87.6048
IC50 Fold Change ([1]; PANEL 9, 69ins, no 184): 26.00
IC50 Fold Change ([1]; PANEL 12, 69ins + 184): >87.6048
IC50 Fold Change ([1]; PANEL 14, 65R, no 184): 17.00
IC50 Fold Change ([1]; PANEL 15, 65R + 184V): >87.6048
IC50 Fold Change ([1]; PANEL 17, L74V): 1.87
IC50 Fold Change ([1]; PANEL 19, L74V + M184V): >87.6048
IC50 Fold Change ([1]; PANEL 26, 151M, no 184): 30.00
IC50 Fold Change ([1]; PANEL 28, 151M + 184): >87.6048
IC50 Fold Change ([1]; PANEL 29, L74V − SDM): 1.47
IC50 Fold Change ([1]; PANEL 30, M184V − SDM): >87.6048
IC50 Fold Change ([1]; PANEL 31, K65R − SDM): 11.00
IC50 Fold Change ([1]; PANEL 33, T215Y): 2.31
IC50 Fold Change ([1]; PANEL 34, T215Y + M184V): >87.6048
IC50 Fold Change ([1]; PANEL 35, M41L + T215Y): 2.74
IC50 Fold Change ([1]; PANEL 37, M41L + T215Y + M184V): >87.6048
IC50 Fold Change ([1]; PANEL 38, M41L + L210W + T215Y): 3.70
IC50 Fold Change ([1]; PANEL 39, M41L + L210W + T215Y): 1.89
IC50 Fold Change ([1]; PANEL 40, M41L + L210W + T215Y + M184V): >87.6048
IC50 Fold Change ([1]; PANEL 41, M41L + L210W + T215Y + M184V): >87.6048
IC50 Fold Change ([1]; PANEL 42, D67N + K70R): 2.87
IC50 Fold Change ([1]; PANEL 44, D67N + K70R + T215F + K219E + M184V): >87.6048
IC50 Fold Change ([1]; PANEL 45, L210W + T215Y): 2.29
IC50 Fold Change ([1]; PANEL 46, D67N + K70E): 2.97
IC50 Fold Change ([1]; PANEL 47, D67N + K70E + M184V): >87.6048
IC50 Fold Change ([1]; PANEL 48, K70E + M184V): >87.6048
Antagonism Volume, Result 1 [2, 3]: 0 nM^2 %, μM^2 % or nMμM %
Antagonism Volume, Result 2 [2, 3]: 0 nM^2 %, μM^2 % or nMμM %
Antagonism Volume, Result 3 [2, 3]: 0 nM^2 %, μM^2 % or nMμM %
Mean Antagonism Volume (n = 3) [2, 3]: 0 nM^2 %, μM^2 % or nMμM %
Mean Synergy Volume (n = 3) [2, 3]: 72.5 nM^2 %, μM^2 % or nMμM %
Synergy Volume, Result 1 [2, 3]: 61.5 nM^2 %, μM^2 % or nMμM %
Synergy Volume, Result 2 [2, 3]: 72.0 nM^2 %, μM^2 % or nMμM %
Synergy Volume, Result 3 [2, 3]: 84.1 nM^2 %, μM^2 % or nMμM %
Interpretation of Antiviral Results (MacSynergy) ([2]; two-drug combination (with CMX157; control d4T/RBV), CEM-SS cells, listed as emtricitabine): slightly synergistic
